This note sets out measurements from US6479478B1, “Carbapenem compounds” (Wyeth Lederle Japan, Ltd., priority 1998, dated 2002).

What all share (assay): Antibacterial test, agar plate dilution method (MIC)
What all share (format): cell-based

One assay deals with S. schottmuelleri 8006. The settings on record: MH agar, 37° C., 18 hours. On the procedure: (§1) The antibacterial activities were tested by an agar plate dilution method in accordance with the standard method of The Japanese Chemotherapy Society [Chemotherapy, Vol.29, 76-79(1981)]. A Mulluer-Hinton (MH) agar liquid medium of a test microorganism was cultured overnight at 37° C. and the resultant culture medium was diluted with a buffered saline gelatin (BSG) solution to contain approximately 10^6 cells of the test microorganisms per milliliter, and then the diluted solution was inoculated with a micro-planter at the rate of approximately 5 μl on a MH agar medium containing a test compound. This medium was then incubated at 37° C. for 18 hours. The minimum inhibitory concentration (MIC) is determined as a minimum concentration in which no test microorganism could grow.
(§2) It is noted here that the test organisms used were all standard strains, and test compounds were Compound (8) and (15) obtained in Examples mentioned later.

In another assay the test system is M. morganii IFO 3848. Particulars: Morganella morganii, IFO3848, MH agar, 37° C., 18 hours. Here is the method: as §1, §2
A further assay has as its system B. subtilis ATCC 6633. The settings on record: Bacillus subtilis, ATCC6633, MH agar, 37° C., 18 hours. On the procedure: as §1, §2
The subject of the next assay is K. pneumoniae PCI-602. Particulars: Klebsiella pneumoniae, PCI602, MH agar, 37° C., 18 hours. Here is the method:
as §1, §2

For another assay, the system named is S. typhimurium 11D971. The settings on record: Salmonella enterica, MH agar, 37° C., 18 hours. On the procedure: as §1, §2
The next assay concerns S. aureus FDA 209 JC-1. The settings on record: Staphylococcus aureus, FDA209, MH agar, 37° C., 18 hours. On the procedure:
as §1, §2

In another assay the test system is E. coli K-12 C600. The settings on record: Escherichia coli, K12C600, MH agar, 37° C., 18 hours. Here is the method:
as §1, §2

The next assay deals with S. aureus MS 353. The settings on record: Staphylococcus aureus, MS353, MH agar, 37° C., 18 hours. On the procedure: as §1, §2
The next assay relates to P. aeruginosa NCTC 10490. The settings on record: Pseudomonas aeruginosa, NCTC10490, MH agar, 37° C., 18 hours. Here is the method:
as §1, §2

The subject of the next assay is S. pyogenes Cook. Particulars: Streptococcus pyogenes, MH agar, 37° C., 18 hours. Here is the method: as §1, §2
The next assay relates to E. aerogenes ATCC 13048. The settings on record: Klebsiella aerogenes, ATCC13048, MH agar, 37° C., 18 hours. On the procedure: as §1, §2
A further assay relates to P. vulgalis HX-19. Particulars: MH agar, 37° C., 18 hours. On the procedure:
as §1, §2

The next assay has as its system S. typhi 901. Particulars: Salmonella enterica, 18 h. On the procedure:
as §1, §2

Another assay has as its system S. enteritridis G14. The settings on record: MH agar, 37° C., 18 hours. On the procedure:
as §1, §2

In a further assay the test system is P. rettgeri IFO 3850. The settings on record: Providencia rettgeri, IFO3850, MH agar, 37° C., 18 hours. Here is the method:
as §1, §2

A further assay concerns P. aeruginosa IFO 3445. The settings on record: Pseudomonas aeruginosa, IFO3445, MH agar, 37° C., 18 hours. On the procedure: as §1, §2
A further assay has as its system P. mirabilis IFO 3849. The settings on record: Proteus mirabilis, IFO3849, MH agar, 37° C., 18 hours. On the procedure: as §1, §2
In the next assay the test system is S. aureus Terajima. Particulars: Staphylococcus aureus, MH agar, 37° C., 18 hours. On the procedure: as §1, §2
The next assay deals with S. paratyphi 1015. Particulars: Salmonella enterica, MH agar, 37° C., 18 hours. Here is the method: as §1, §2
The subject of a further assay is E. cloacae 963. Particulars: Enterobacter cloacae, MH agar, 37° C., 18 hours. Here is the method: as §1, §2
The subject of another assay is E. coli NIHJ JC-2. Particulars: Escherichia coli, NIHJJC2, MH agar, 37° C., 18 hours. On the procedure: as §1, §2
A further assay concerns M. luteus ATCC 9341. The settings on record: Micrococcus luteus, ATCC9341, MH agar, 37° C., 18 hours. On the procedure: as §1, §2
A further assay has as its system P. aeruginosa PAO 1. Particulars: Pseudomonas aeruginosa, PAO1, MH agar, 37° C., 18 hours. On the procedure: as §1, §2
For another assay, the system named is P. vulgaris OX-19. Particulars: Proteus vulgaris, OX19, MH agar, 37° C., 18 hours. On the procedure:
as §1, §2

Structures are written as SMILES. Values after ≈ are worked out from the molar mass of the structure shown.

On to `C[C@@H](O)[C@H]1C(=O)N2C(C(=O)O)=C(SC3CN(C4=NCCN4C)C3)[C@H](C)[C@H]12` [Compound (8), (1R,5S,6S)-2-[1-(1-methy-2-imidazolin-2-yl)azetidin-3-yl]-thio-6-[(R)-1-hydroxyethyl]-1-methylcarbapen-2-em-3-carbolic acid], for which the minimal inhibitory concentration (MIC) with S. schottmuelleri 8006 stood at 0.1 µg/mL (≈ 0.263 µM); with M. morganii IFO 3848 it was 0.2 µg/mL (≈ 0.526 µM); in the assay on B. subtilis ATCC 6633 it was 0.025 µg/mL (≈ 0.0657 µM); in the assay with K. pneumoniae PCI-602 it was 0.1 µg/mL (≈ 0.263 µM); against S. typhimurium 11D971, 0.05 µg/mL (≈ 0.131 µM); in the assay on S. aureus FDA 209 JC-1, 0.025 µg/mL (≈ 0.0657 µM). The minimal inhibitory concentration (MIC) in the assay on E. coli K-12 C600 was 0.1 µg/mL (≈ 0.263 µM); in the assay on S. aureus MS 353, 0.013 µg/mL (≈ 0.0342 µM); against P. aeruginosa NCTC 10490, 12.5 µg/mL (≈ 32.9 µM); against S. pyogenes Cook, at most 0.006 µg/mL; against E. aerogenes ATCC 13048, 0.1 µg/mL (≈ 0.263 µM); in the assay with P. vulgalis HX-19 it was 0.39 µg/mL (≈ 1.03 µM). For the same compound, the minimum inhibitory concentration (MIC) in the assay with S. typhi 901 worked out at 0.025 µg/mL (≈ 0.0657 µM); in the assay on S. enteritridis G14, 0.2 µg/mL (≈ 0.526 µM); with P. rettgeri IFO 3850 it was 0.05 µg/mL (≈ 0.131 µM); in the assay on P. aeruginosa IFO 3445 it was 3.13 µg/mL (≈ 8.23 µM); in the assay with P. mirabilis IFO 3849, 0.78 µg/mL (≈ 2.05 µM); with S. aureus Terajima it was 0.013 µg/mL (≈ 0.0342 µM). The MIC in the assay on S. paratyphi 1015 came to 0.1 µg/mL (≈ 0.263 µM); with E. cloacae 963, 0.1 µg/mL (≈ 0.263 µM); in the assay on E. coli NIHJ JC-2 it was 0.025 µg/mL (≈ 0.0657 µM); in the assay with M. luteus ATCC 9341, 0.025 µg/mL (≈ 0.0657 µM); in the assay on P. aeruginosa PAO 1 it was 12.5 µg/mL (≈ 32.9 µM); against P. vulgaris OX-19, 0.2 µg/mL (≈ 0.526 µM).

Take `C[C@@H](O)[C@H]1C(=O)N2C(C(=O)O)=C(SC3CN(C4=NCCN4)C3)[C@H](C)[C@H]12` [Compound (15), (1R,5S,6S)-2-[1-(1,3-imidazolin-2-yl)azetidin-3-yl]thio-6-[(R)-1-hydroxyethyl]-1-methylcarbapen-2-em-3-carbolic acid]: the MIC worked out at 0.1 µg/mL (≈ 0.273 µM) against S. schottmuelleri 8006; 1.56 µg/mL (≈ 4.26 µM) in the assay on M. morganii IFO 3848; 0.025 µg/mL (≈ 0.0682 µM) in the assay on B. subtilis ATCC 6633; 0.05 µg/mL (≈ 0.136 µM) against K. pneumoniae PCI-602; 0.05 µg/mL (≈ 0.136 µM) against S. typhimurium 11D971; 0.025 µg/mL (≈ 0.0682 µM) against S. aureus FDA 209 JC-1. Also, the MIC against E. coli K-12 C600 is 0.2 µg/mL (≈ 0.546 µM); in the assay on S. aureus MS 353, 0.013 µg/mL (≈ 0.0355 µM); with P. aeruginosa NCTC 10490 it was 1.56 µg/mL (≈ 4.26 µM); with S. pyogenes Cook, at most 0.006 µg/mL; against E. aerogenes ATCC 13048, 0.1 µg/mL (≈ 0.273 µM); with P. vulgalis HX-19 it was 0.78 µg/mL (≈ 2.13 µM). Moreover, the minimum inhibitory concentration (MIC) in the assay on S. typhi 901 was 0.025 µg/mL (≈ 0.0682 µM); in the assay with S. enteritridis G14, 1.56 µg/mL (≈ 4.26 µM); in the assay with P. rettgeri IFO 3850 it was 0.025 µg/mL (≈ 0.0682 µM); against P. aeruginosa IFO 3445, 1.56 µg/mL (≈ 4.26 µM); against P. mirabilis IFO 3849, 0.78 µg/mL (≈ 2.13 µM); with S. aureus Terajima, at most 0.006 µg/mL. In addition, the minimal inhibitory concentration (MIC) against S. paratyphi 1015 is 0.1 µg/mL (≈ 0.273 µM); against E. cloacae 963, 0.05 µg/mL (≈ 0.136 µM); against E. coli NIHJ JC-2, 0.025 µg/mL (≈ 0.0682 µM); in the assay with M. luteus ATCC 9341, 0.05 µg/mL (≈ 0.136 µM); with P. aeruginosa PAO 1 it was 3.13 µg/mL (≈ 8.54 µM); against P. vulgaris OX-19 it was 0.78 µg/mL (≈ 2.13 µM).
